Measurements: ChEMBL document CHEMBL3244234, “Alteration of relative affinities toward myocardial and vascular beta adrenoceptors induced by side-chain substitution of aryloxypropanolamines” (J Med Chem, 1978)

Legend:
Felis catus [1] = test: Potency ratio for in vivo inhibition of beta-1 adrenoceptor in vagotomized cat assessed as inhibition of isoproterenol-induced tachycardia to in vivo inhibition of beta-2 adrenoceptor in chloralose-anesthetized vagotomized cat assessed as inhibition of isoproterenol-induced fall in diastolic pressure; format: functional
Felis catus [2] = test: In vivo inhibition of beta-2 adrenoceptor in chloralose-anesthetized vagotomized cat assessed as inhibition of isoproterenol-induced fall in diastolic pressure; format: functional, organism-based; conditions: read-out: pA2 (converted)
[3] = 1-Octanol-phosphate buffer apparent partition coefficient, log P of the compound at pH 7.4; format: physicochemical
Felis catus [4] = test: In vivo inhibition of beta-1 adrenoceptor in vagotomized cat assessed as inhibition of isoproterenol-induced tachycardia; format: functional, organism-based; conditions: read-out: pA2 (converted)
Felis catus [5] = test: Potency ratio for in vivo inhibition of beta-2 adrenoceptor in chloralose-anesthetized vagotomized cat assessed as inhibition of isoproterenol-induced fall in diastolic pressure to in vivo inhibition of beta-1 adrenoceptor in vagotomized cat assessed as inhibition of isoproterenol-induced tachycardia; format: functional
Cavia porcellus = organism: Cavia porcellus; test: Selectivity for guinea pig right atria beta-1 adrenoceptor over guinea pig trachea beta-2 adrenoceptor

Row | SMILES | Ratio (Felis catus [1]) | Kb (Felis catus [2]) [µM] | logD [3] | Kb (Felis catus [4]) [µM] | Ratio (Felis catus [5]) | Selectivity ratio (Cavia porcellus)
1 | Cc1ccc(OCC(O)CNC(C)C)cc1 (racemic) | 1 | 0.234 | 0.423 | 0.234 | – | –
2 | COc1ccc(CCNCC(O)COc2ccccc2)cc1OC.Cl (racemic) | 10 | 0.692 | 1.7 | 0.0631 | – | –
3 | CC(C)N[C@@H](C)[C@@H](O)COc1ccccc1.O=C(O)C(=O)O (racemic) | 0.3 | 0.631 | -0.244 | 2.19 | 3 | –
4 | CC(C)N[C@H](C)[C@@H](O)COc1ccccc1.Cl (racemic) | 0.3 | 0.151 | -0.244 | 0.501 | 3 | –
5 | CC(C)NCC(O)COc1ccccc1 (racemic) | 5 | 0.204 | -0.137 | 0.0447 | – | 25
6 | CC(=O)Nc1ccc(OCC(O)CNC(C)C)cc1 (racemic) [PRACTOLOL] | 22 | 5.01 | -1.05 | 0.229 | – | –
7 | Cc1ccc([C@@H](O)[C@H](C)NC(C)C)cc1 (racemic) | <0.3 | 3.39 | 0.149 | > 10 | – | –
8 | CC(C)N[C@H](c1ccccc1)[C@@H](O)COc1ccccc1 (racemic) | – | > 10 | 2.1 | > 10 | – | –
9 | COc1ccc(CCN[C@H](C)[C@@H](O)COc2ccccc2)cc1OC.Cl (racemic) | >40 | > 10 | 1.66 | 0.219 | – | –
